Each block holds one molecule with its values, some of them ahead of it.
How the values were obtained:
Aβ25-35 induced AD mice [1] = experiment: Lipid peroxidation in hippocampus homogenates of Aβ25-35 injected mice; type: in vivo; details: once daily oral dosing of 3 mg/kg and 10 mg/kg
Source text: 10 Days after ICV injection of oligomeric Aβ25-35 peptide, the hippocampus was dissected out. And lipid peroxidation level was quantified in the hippocampus homogenates. ICV injection of oligomeric Aβ25-35 peptide induced lipid peroxidation, a marker for oxidative stress. […] (FIG. 7)

Aβ25-35 induced AD mice [2] = experiment: Step-through passive avoidance (STPA) test in Aβ25-35 induced AD mice; type: in vivo; details: orally once daily for 10 days; Example 4 1, 3 and 10 mg/kg, nilotinib 3 mg/kg
in vivo = details: male, ICR, mouse, po, 5 mg/kg
Aβ25-35 induced AD mice [3] = experiment: Y-maze spontaneous alternation in Aβ25-35 induced AD mice; type: in vivo; details: orally once daily for 10 days; Example 4 1, 3 and 10 mg/kg, nilotinib 3 mg/kg
Source text: Y-maze test as a behavioral test was used to assess memory function and the willingness of rodents to explore new environments ICV injection of oligomeric Aβ25-35 peptide triggered neurotoxic effects and behavioral deficit in Y-maze test evaluating short term memory, by measurement of spontaneous alternation, while any change of motor symptom was not observed by measurement of locomotion.

[4] = tested on: α-synuclein PFF-induced pathologic aggregation (Lewy body-like pathology); experiment: α-synuclein PFF-induced pathologic aggregation; type: cell-based
[5] = tested on: α-synuclein PFF induced PD mice; experiment: Pole test in α-synuclein PFF induced PD mice; type: in vivo
[6] = tested on: Phosphorylation of α-synuclein at ser129; experiment: Phosphorylation of α-synuclein in α-synuclein PFF induced PD model; type: in vivo, mice; details: q.d.; for reduction of phosphorylation of α-synuclein at ser129: oral
[7] = tested on: PFF-induced neuronal toxicity; experiment: PFF-induced neuronal toxicity; type: cell-based; details: dose: 0.5, 1, 5, 10, 100 nM
[8] = Oral dose pharmacokinetic study in mice; details: for brain exposure compared with nilotinib: oral 5 mg/kg
hERG = hERG (Homo sapiens (Human), UniProt Q12809); experiment: hERG activity
Recombinant human c-Kit = Recombinant human c-Kit (Homo sapiens (Human), UniProt P10721); experiment: c-KIT kinase assay (ADP-Glo); type: biochemical; details: Table 3, kinase selectivity
Description: ADP-Glo assay kit was purchased from Promega. Magnesium chloride (MgCl2), Manganese(II) chloride (MnCl2), Bovine serum albumin (BSA) and dimethylsulfoxide (DMSO) were purchased from Sigma-Aldrich. Tris-HCl buffer was purchased from Biosesang. c-Kit kinase and Poly (4:1 Glu, Tyr) Peptide were purchased from Signalchem.
c-Kit kinase activity was measured by Promega's ADP-Glo™ Assay.

[9] = 10 mg/kg orally once daily for 5 months

Recombinant human c-Kit, sequence (P10721 26-976): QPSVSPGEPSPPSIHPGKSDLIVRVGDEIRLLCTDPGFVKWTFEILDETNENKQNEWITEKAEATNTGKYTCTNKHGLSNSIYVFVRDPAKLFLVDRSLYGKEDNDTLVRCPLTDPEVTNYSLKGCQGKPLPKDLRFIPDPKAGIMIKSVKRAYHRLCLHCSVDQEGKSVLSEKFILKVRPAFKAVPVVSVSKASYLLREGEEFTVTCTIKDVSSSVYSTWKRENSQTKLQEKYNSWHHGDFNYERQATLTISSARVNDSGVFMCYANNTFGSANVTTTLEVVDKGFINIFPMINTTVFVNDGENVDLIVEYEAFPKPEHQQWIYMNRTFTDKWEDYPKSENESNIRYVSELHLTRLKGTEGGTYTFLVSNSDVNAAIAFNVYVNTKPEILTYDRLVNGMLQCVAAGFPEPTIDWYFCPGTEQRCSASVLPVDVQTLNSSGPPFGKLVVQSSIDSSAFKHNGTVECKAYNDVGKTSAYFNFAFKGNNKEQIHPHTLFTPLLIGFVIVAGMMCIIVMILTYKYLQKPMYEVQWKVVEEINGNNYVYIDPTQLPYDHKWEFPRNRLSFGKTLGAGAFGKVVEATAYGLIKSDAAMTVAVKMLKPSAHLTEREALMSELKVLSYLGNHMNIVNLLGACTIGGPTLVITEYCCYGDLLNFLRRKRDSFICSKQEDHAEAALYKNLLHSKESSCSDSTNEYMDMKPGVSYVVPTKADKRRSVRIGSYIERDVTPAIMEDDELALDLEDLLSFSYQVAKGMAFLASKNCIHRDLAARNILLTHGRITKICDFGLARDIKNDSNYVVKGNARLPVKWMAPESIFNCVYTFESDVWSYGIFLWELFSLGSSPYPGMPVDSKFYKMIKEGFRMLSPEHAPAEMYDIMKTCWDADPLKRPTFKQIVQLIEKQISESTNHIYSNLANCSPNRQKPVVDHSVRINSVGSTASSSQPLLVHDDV
hERG, sequence (Q12809 whole entry): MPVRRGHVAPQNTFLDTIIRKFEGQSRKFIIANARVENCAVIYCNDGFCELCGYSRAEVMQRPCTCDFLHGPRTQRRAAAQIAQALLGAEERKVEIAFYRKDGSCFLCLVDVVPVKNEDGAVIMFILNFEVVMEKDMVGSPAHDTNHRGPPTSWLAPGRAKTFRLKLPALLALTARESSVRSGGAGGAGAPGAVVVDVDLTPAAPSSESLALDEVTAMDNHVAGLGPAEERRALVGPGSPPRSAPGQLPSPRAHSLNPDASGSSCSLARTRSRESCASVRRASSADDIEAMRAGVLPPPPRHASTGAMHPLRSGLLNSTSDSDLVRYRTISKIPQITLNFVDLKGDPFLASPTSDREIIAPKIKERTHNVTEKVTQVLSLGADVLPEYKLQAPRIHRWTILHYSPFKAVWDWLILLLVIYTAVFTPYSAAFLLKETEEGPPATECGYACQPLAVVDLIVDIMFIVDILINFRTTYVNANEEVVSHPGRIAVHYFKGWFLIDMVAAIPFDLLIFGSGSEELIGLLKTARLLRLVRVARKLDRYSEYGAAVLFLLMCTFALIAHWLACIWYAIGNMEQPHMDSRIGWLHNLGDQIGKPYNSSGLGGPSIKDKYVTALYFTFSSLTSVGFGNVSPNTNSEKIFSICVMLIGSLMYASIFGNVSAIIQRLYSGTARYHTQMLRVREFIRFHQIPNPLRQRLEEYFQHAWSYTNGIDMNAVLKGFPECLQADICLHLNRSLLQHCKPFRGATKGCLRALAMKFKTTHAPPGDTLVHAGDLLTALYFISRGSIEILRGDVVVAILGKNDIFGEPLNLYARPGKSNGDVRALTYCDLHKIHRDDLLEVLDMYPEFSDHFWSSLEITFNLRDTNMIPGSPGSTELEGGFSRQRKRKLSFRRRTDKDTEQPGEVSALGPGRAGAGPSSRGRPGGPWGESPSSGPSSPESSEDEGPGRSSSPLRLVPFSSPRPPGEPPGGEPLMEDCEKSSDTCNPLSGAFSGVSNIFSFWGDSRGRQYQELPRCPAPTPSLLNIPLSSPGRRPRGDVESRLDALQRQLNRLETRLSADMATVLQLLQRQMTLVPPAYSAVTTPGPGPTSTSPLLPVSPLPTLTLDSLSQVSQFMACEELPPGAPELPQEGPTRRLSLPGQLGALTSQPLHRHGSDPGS

Compound: Cc1ccncc1-c1ccc2nc(NC(=O)C3CC3)sc2c1 [Example 5, N-(6-(4-methylpyridin-3-yl)benzo[d]thiazol-2-yl)cyclopropanecarboxamide]
AUC(0-inf) (in vivo; brain): 1.98 µg·h/mL
AUC(0-inf) (in vivo; plasma): 8.48 µg·h/mL

Compound: Cc1ccncc1-c1ccc2sc(NC(=O)[C@@H]3C[C@@H]3F)nc2c1 [Example 6, (1S,2S)-2-fluoro-N-(5-(4-methylpyridin-3-yl)benzo[d]thiazol-2-yl)cyclopropane-1-carboxamide]
AUC(0-inf) (in vivo; brain): 3.95 µg·h/mL
Kp (in vivo; brain/plasma): 0.5
AUC(0-inf) (in vivo; plasma): 4.86 µg·h/mL

Compound: Cc1ccc(O)cc1-c1ccc2nc(NC(=O)[C@@H]3C[C@@H]3F)sc2c1 [Example 14, (1S,2S)-2-fluoro-N-(6-(5-hydroxy-2-methylphenyl)benzo[d]thiazol-2-yl)cyclopropane-1-carboxamide]
IC50 (Recombinant human c-Kit): 1.34 µM

Compound: C=C(C)c1ccc(C)c(-c2ccc3nc(NC(=O)[C@@H]4C[C@@H]4F)sc3c2)c1 [Example 17, (1S,2S)-2-fluoro-N-(6-(2-methyl-5-(prop-1-en-2-yl)phenyl)benzo[d]thiazol-2-yl)cyclopropane-1-carboxamide]
IC50 (Recombinant human c-Kit): > 10 µM

Compound: Cc1cn(-c2cc(NC(=O)c3ccc(C)c(Nc4nccc(-c5cccnc5)n4)c3)cc(C(F)(F)F)c2)cn1 [Nilotinib, nilotinib, reference compound]
contextual long-term memory deficits (Aβ25-35 induced AD mice [2]): no significant effect
deficits of alternation behavior (spatial working memory) (Aβ25-35 induced AD mice [3]): partially alleviated
pole climb down time [5, 9]: just a slight improvement
effect on phosphorylation of α-synuclein ([6]; 3 and 10 mg/kg): not effective

More lines, main results first:

AUC(0-inf) (in vivo; brain): 4.14 µg·h/mL
AUC(0-inf) (in vivo; plasma): 11.4 µg·h/mL
Cmax (in vivo; plasma): 3.59 µg/mL
Tmax (in vivo; plasma): 30 min
PK profile [8]: good PK profiles
AUCINF ([8]; PO 5 mg/kg, Table 5): 682041.7 ng·min/mL
brain exposure compared with nilotinib [8]: better brain exposure than nilotinib
Compound: Cc1ccncc1-c1ccc2nc(NC(=O)[C@@H]3C[C@@H]3F)sc2c1 [Example 4, (1S,2S)-2-fluoro-N-(6-(4-methylpyridin-3-yl)benzo[d]thiazol-2-yl)cyclopropane-1-carboxamide]
lipid peroxidation (oxidative stress marker) in hippocampus (Aβ25-35 induced AD mice [1]): completely inhibited
contextual long-term memory deficits (Aβ25-35 induced AD mice [2]): very significantly and fully alleviated
deficits of alternation behavior (spatial working memory) (Aβ25-35 induced AD mice [3]): very significantly and fully alleviated
α-synuclein PFF-induced pathologic aggregation (Lewy body-like pathology) [4]: decreased
improvement of pole climb down time ([5]; 0.3 mg/kg orally once daily for 5 months): 50%
pole climb down time [5, 9]: completely recovered
pole climb down time ([5]; 0.3, 1, 3 and 10 mg/kg orally once daily for 5 months): recovered by treatment of Example 4 in a dose-dependent manner
reduction of phosphorylation of α-synuclein at ser129 ([6]; 3 mg/kg): about 50%
reduction of phosphorylation of α-synuclein at ser129 ([6]; 10 mg/kg): ~80%
PFF-induced neuronal toxicity [7]: inhibited PFF-induced neuronal toxicity in a dose dependent manner

Cmax (in vivo; plasma): 4.17 µg/mL
Tmax (in vivo; plasma): 60 min
PK profile [8]: good PK profiles
brain exposure compared with nilotinib [8]: better brain exposure than nilotinib
Compound: Cc1c(F)cncc1-c1ccc2nc(NC(=O)[C@@H]3C[C@@H]3F)sc2c1 [Example 8, (1S,2S)-2-fluoro-N-(6-(5-fluoro-4-methylpyridin-3-yl)benzo[d]thiazol-2-yl)cyclopropane-1-carboxamide]
inhibition at 10 µM (hERG): 12.6%

IC50 (Recombinant human c-Kit): 1.02 µM
Compound: Cc1c(O)cccc1-c1ccc2nc(NC(=O)[C@@H]3C[C@@H]3F)sc2c1 [Example 22, (1S,2S)-2-fluoro-N-(6-(3-hydroxy-2-methylphenyl)benzo[d]thiazol-2-yl)cyclopropane-1-carboxamide]

Source: patent US10669246B2, “Benzothiazol compounds and methods using the same for treating neurodegenerative disorders” (1ST Biotherapeutics, Inc., priority 2017, dated 2020)
